ChEMBL document CHEMBL1629662, “Antimicrobial activity of prulifloxacin tested against a worldwide collection of gastroenteritis-producing pathogens, including those causing traveler's diarrhea” (2009)

Columns and labels:
Format in all cases: functional
[1] = test system: Yersinia pseudotuberculosis; assay: Antibacterial activity against Yersinia pseudotuberculosis assessed as percent susceptible isolates by broth microdilution method
[2] = test system: Aeromonas hydrophila; assay: Antibacterial activity against Aeromonas hydrophila by broth microdilution method
[3] = test system: Aeromonas hydrophila; assay: Antibacterial activity against Aeromonas hydrophila assessed as percent susceptible isolates by broth microdilution method
[4] = test system: Aeromonas hydrophila; assay: Antibacterial activity against Aeromonas hydrophila assessed as percent resistant isolates by broth microdilution method
[5] = test system: Aeromonas caviae; assay: Antibacterial activity against Aeromonas caviae by broth microdilution method
[6] = test system: Aeromonas caviae; assay: Antibacterial activity against Aeromonas caviae assessed as percent susceptible isolates by broth microdilution method
[7] = test system: Aeromonas caviae; assay: Antibacterial activity against Aeromonas caviae assessed as percent resistant isolates by broth microdilution method
[8] = test system: Aeromonas sobria; assay: Antibacterial activity against Aeromonas sobria by broth microdilution method
[9] = test system: Aeromonas sobria; assay: Antibacterial activity against Aeromonas sobria assessed as percent susceptible isolates by broth microdilution method
[10] = test system: Aeromonas sobria; assay: Antibacterial activity against Aeromonas sobria assessed as percent resistant isolates by broth microdilution method
[11] = test system: Aeromonas veronii; assay: Antibacterial activity against Aeromonas veronii by broth microdilution method
[12] = test system: Aeromonas veronii; assay: Antibacterial activity against Aeromonas veronii assessed as percent susceptible isolates by broth microdilution method
[13] = test system: Aeromonas veronii; assay: Antibacterial activity against Aeromonas veronii assessed as percent resistant isolates by broth microdilution method
[14] = test system: Plesiomonas shigelloides; assay: Antibacterial activity against Plesiomonas shigelloides by broth microdilution method
[15] = test system: Plesiomonas shigelloides; assay: Antibacterial activity against Plesiomonas shigelloides assessed as percent susceptible isolates by broth microdilution method
[16] = test system: Plesiomonas shigelloides; assay: Antibacterial activity against Plesiomonas shigelloides assessed as percent resistant isolates by broth microdilution method
[17] = test system: Vibrio cholerae; assay: Antibacterial activity against Vibrio cholerae by broth microdilution method
[18] = test system: Vibrio parahaemolyticus; assay: Antibacterial activity against Vibrio parahaemolyticus by broth microdilution method
[19] = test system: Vibrio alginolyticus; assay: Antibacterial activity against Vibrio alginolyticus by broth microdilution method
[20] = test system: Vibrio fluvialis; assay: Antibacterial activity against Vibrio fluvialis by broth microdilution method
[21] = test system: Vibrio vulnificus; assay: Antibacterial activity against Vibrio vulnificus by broth microdilution method
[22] = test system: Vibrio sp.; assay: Antibacterial activity against Vibrio sp. by broth microdilution method
[23] = test system: Campylobacter jejuni; assay: Antibacterial activity against Campylobacter jejuni by broth microdilution method
[24] = test system: Campylobacter coli; assay: Antibacterial activity against Campylobacter coli by broth microdilution method

With `CCn1cc(C(=O)O)c(=O)c2ccc(C)nc21` [NALIDIXIC ACID] the Activity [1] was 93.5%, the MIC50 [2] was ≤ 8 µg/mL and the MIC90 [2] was > 32 µg/mL. For the same molecule, the Activity [3] was 81.2%, the Activity [4] was 18.8% and the MIC50 [5] was ≤ 8 µg/mL. The MIC90 [5] was > 32 µg/mL, the Activity [6] was 81.2% and the Activity [7] was 18.8%. The MIC50 [8] was ≤ 8 µg/mL, the MIC90 [8] was > 32 µg/mL and the Activity [9] was 81.2%. The Activity [10] was 18.8%, the MIC50 [11] was ≤ 8 µg/mL and the MIC90 [11] was > 32 µg/mL. For the same molecule, the Activity [12] was 81.2%, the Activity [13] was 18.8% and the MIC [14] was ≤ 8 µg/mL. The MIC50 [14] was ≤ 8 µg/mL, the Activity [15] was 100% and the Activity [16] was 0%. The MIC [17] was ≤ 8 µg/mL, the MIC50 [17] was ≤ 8 µg/mL and the MIC90 [17] was ≤ 8 µg/mL. For the same molecule, the MIC [18] was ≤ 8 µg/mL, the MIC50 [18] was ≤ 8 µg/mL and the MIC90 [18] was ≤ 8 µg/mL. For the same molecule, the MIC [19] was ≤ 8 µg/mL, the MIC50 [19] was ≤ 8 µg/mL and the MIC90 [19] was ≤ 8 µg/mL. The MIC [20] was ≤ 8 µg/mL, the MIC50 [20] was ≤ 8 µg/mL and the MIC90 [20] was ≤ 8 µg/mL. For the same molecule, the MIC [21] was ≤ 8 µg/mL, the MIC50 [21] was ≤ 8 µg/mL and the MIC90 [21] was ≤ 8 µg/mL. The MIC [22] was ≤ 8 µg/mL, the MIC50 [22] was ≤ 8 µg/mL and the MIC90 [22] was ≤ 8 µg/mL. The MIC50 [23] was ≤ 8 µg/mL, the MIC90 [23] was > 32 µg/mL and the MIC50 [24] was ≤ 8 µg/mL. For the same molecule, the MIC90 [24] was > 32 µg/mL.
